Consider four compounds from patent publication US12252524B2, “GIP/GLP1 co-agonist compounds” (Eli Lilly and Company, priority 2018, dated 2025).

One experiment concerns the target human GLP-1R (Homo sapiens, UniProt P43220). The experiment in a line: [125I]-GLP-1 binding (SPA), human GLP-1 receptor. Details: expressed in transfected cells; crude membranes. To be noted: read-out: hGLP1R Ki, (nM) (SEM, n). An outline of the steps: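 Crude-membrane binding assay; one membrane prep included 1 mM MgCl2 and 25 units/ml DNAse I during lysis. Assay buffer at pH 7.4 contains 0.1% (w/v) bacitracin and 0.003% (w/v) TWEEN-20. Ki is reported as geometric mean.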

The next experiment has as its target T1, human Gcg receptor (Homo sapiens, UniProt P47871).
T1 construct: expressed in transfected cells; crude membranes
Kind of experiment: [125I]-Glucagon binding (SPA), human Gcg receptor. The note with it: read-out: hGLcgR Ki, nM (SEM, n). An outline of the steps:
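Scintillation counts are taken after membranes and WGA beads incubate and settle for 12 hours at room temperature. Buffer is 25 mM HEPES, pH 7.4, with CaCl2, MgCl2, bacitracin and Tween-20. Ki values, from four-parameter IC50 fits, are geometric means over independent days.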

The target in the next experiment is T2, human GIP receptor (Homo sapiens, UniProt P48546).
T2 construct: expressed in transfected cells; crude membranes
T2 sequence (P48546 22-466): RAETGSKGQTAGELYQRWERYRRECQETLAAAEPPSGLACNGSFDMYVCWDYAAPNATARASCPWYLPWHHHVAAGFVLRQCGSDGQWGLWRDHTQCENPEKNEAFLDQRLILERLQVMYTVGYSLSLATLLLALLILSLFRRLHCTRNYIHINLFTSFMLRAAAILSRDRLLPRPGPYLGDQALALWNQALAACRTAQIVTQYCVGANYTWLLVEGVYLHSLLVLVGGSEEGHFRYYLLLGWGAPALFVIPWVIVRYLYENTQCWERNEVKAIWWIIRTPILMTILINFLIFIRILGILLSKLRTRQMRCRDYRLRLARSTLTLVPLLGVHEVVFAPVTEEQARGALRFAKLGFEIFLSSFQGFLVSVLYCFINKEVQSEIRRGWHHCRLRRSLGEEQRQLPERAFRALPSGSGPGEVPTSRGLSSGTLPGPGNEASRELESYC
The experiment in a line: [125I]-GIP binding (SPA), human GIP receptor. To be noted: read-out: hGIPR Ki, nM (SEM, n).

The target of experiment [1] is T3, gastric inhibitory peptide receptor (GIPR) (Homo sapiens, UniProt P48546).
T3 sequence (P48546 22-466): T2 sequence (P48546 22-466)
The experiment in a line: cAMP pharmacological functional assay in presence of casein, hGIPR. It counts as cell-based. The note with it: HEK293 cells expressing hGIPR, 0.1% Casein, geometric mean; read-out: hGIPR cAMP Rel EC50 nM (SEM, n).

In experiment [2] the target is human GLP-1 receptor (GLP-1R) (Homo sapiens, UniProt P43220). The experiment in a line: cAMP pharmacological functional assay in presence of casein, hGLP-1R. Format: cell-based. To be noted: HEK293 cells expressing hGLP-1R, 0.1% Casein, geometric mean; read-out: hGLP1R cAMP Rel EC50 nM (SEM, n).

Numbered stars: 1 amine (or outer) side, 2 acyl side, 3 side chain; on linkers, the order of the positions; unused ones are H or OH. Square brackets hold non-standard residues; d marks the D form. Side chains are listed from the residue outwards. Peptide text beside a SMILES is read from it. * marks the point of attachment. C20 diacid = O=C(O)CCCCCCCCCCCCCCCCCCC(=O)*; αMePhe(2-F) = C[C@](N)(Cc1ccccc1F)C(=O)O; γGlu = O=C(O)[C@H](CCC(=O)[*:2])N[*:1]; αMeF = C[C@](N)(Cc1ccccc1)C(=O)O; Aad = N[C@@H](CCCC(=O)O)C(=O)O; αMeL = CC(C)C[C@](C)(N)C(=O)O; AEEA = NCCOCCOCC(=O)O; Aib = CC(C)(N)C(=O)O

human GLP-1 receptor (GLP-1R), sequence (P43220 24-463): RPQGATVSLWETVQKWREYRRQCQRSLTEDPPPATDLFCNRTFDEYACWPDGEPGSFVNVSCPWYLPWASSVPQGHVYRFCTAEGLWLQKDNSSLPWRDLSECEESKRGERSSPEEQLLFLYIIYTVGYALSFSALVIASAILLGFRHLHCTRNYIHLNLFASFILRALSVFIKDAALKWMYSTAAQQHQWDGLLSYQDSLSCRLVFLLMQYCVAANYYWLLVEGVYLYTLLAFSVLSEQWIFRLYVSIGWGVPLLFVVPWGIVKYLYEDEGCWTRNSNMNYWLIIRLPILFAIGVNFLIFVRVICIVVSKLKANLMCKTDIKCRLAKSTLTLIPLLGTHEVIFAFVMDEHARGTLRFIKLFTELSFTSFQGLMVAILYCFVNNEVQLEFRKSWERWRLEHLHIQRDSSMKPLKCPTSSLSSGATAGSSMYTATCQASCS
human GLP-1R, sequence (P43220 24-463): as above
T1 sequence (P47871 26-477): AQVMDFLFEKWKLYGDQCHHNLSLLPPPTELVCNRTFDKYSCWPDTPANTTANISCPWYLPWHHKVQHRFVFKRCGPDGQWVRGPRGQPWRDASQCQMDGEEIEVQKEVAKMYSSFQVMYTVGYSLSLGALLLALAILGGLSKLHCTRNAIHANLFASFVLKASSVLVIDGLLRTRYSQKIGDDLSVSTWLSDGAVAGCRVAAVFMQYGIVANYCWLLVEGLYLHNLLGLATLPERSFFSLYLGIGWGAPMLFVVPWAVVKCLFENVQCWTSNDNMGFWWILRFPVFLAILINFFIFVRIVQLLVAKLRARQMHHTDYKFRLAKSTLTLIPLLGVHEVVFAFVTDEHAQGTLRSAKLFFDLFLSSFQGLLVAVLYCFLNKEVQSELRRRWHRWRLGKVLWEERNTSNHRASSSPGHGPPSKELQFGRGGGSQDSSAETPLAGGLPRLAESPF

A word on the Ki: it is the equilibrium dissociation constant of an inhibitor or competing ligand from its target. What is called EC50 is the concentration at which the effect is half-maximal. With `CC[C@H](C)[C@H](NC(=O)[C@H](CC(C)C)NC(=O)[C@H](Cc1ccc(O)cc1)NC(=O)[C@H](CCC(=O)O)NC(=O)[C@@H](NC(=O)[C@H](Cc1ccccc1)NC(=O)[C@H](C)NC(=O)C(C)(C)NC(=O)[C@H](CCC(N)=O)NC(=O)[C@H](C)NC(=O)[C@H](CCCCNC(=O)COCCOCCNC(=O)COCCOCCNC(=O)CC[C@H](NC(=O)CCCCCCCCCCCCCCCCCCC(=O)O)C(=O)O)NC(=O)[C@H](CCCCN)NC(=O)[C@H](CC(=O)O)NC(=O)[C@H](CC(C)C)NC(=O)[C@](C)(CC(C)C)NC(=O)[C@@H](NC(=O)[C@H](CO)NC(=O)[C@H](C)NC(=O)[C@H](CC(=O)O)NC(=O)[C@H](CO)NC(=O)[C@@H](NC(=O)[C@](C)(Cc1ccccc1)NC(=O)[C@@H](NC(=O)CNC(=O)[C@H](CCC(=O)O)NC(=O)C(C)(C)NC(=O)[C@@H](N)Cc1ccc(O)cc1)[C@@H](C)O)[C@@H](C)O)[C@@H](C)CC)[C@@H](C)CC)C(=O)N[C@@H](CCC(=O)O)C(=O)NCC(=O)NCC(=O)N1CCC[C@H]1C(=O)N[C@@H](CO)C(=O)N[C@@H](CO)C(=O)NCC(=O)N[C@@H](C)C(=O)N1CCC[C@H]1C(=O)N1CCC[C@H]1C(=O)N1CCC[C@H]1C(=O)N[C@@H](CO)C(N)=O` [Example 145] (H-Y[Aib]EGT[αMeF]TSDASI[αMeL]LDKK([AEEA-AEEA-γGlu-C20 diacid])AQ[Aib]AFIEYLIEGGPSSGAPPPS-NH2), the Ki at human GLP-1R was determined as 2.22 nM; at human Gcg receptor, 158 nM; at human GIP receptor, 0.0652 nM. The EC50 in experiment [1] stood at 0.0514 nM; in experiment [2], 0.0427 nM.

For the compound `CC[C@H](C)[C@H](NC(=O)[C@H](CC(C)C)NC(=O)[C@H](Cc1ccc(O)cc1)NC(=O)[C@H](CCCC(=O)O)NC(=O)[C@@H](NC(=O)[C@H](Cc1ccccc1)NC(=O)[C@H](CCC(=O)O)NC(=O)C(C)(C)NC(=O)[C@H](CCC(N)=O)NC(=O)[C@H](C)NC(=O)[C@H](CCCCNC(=O)COCCOCCNC(=O)COCCOCCNC(=O)CC[C@H](NC(=O)CCCCCCCCCCCCCCCCCCC(=O)O)C(=O)O)NC(=O)[C@H](CCC(=O)O)NC(=O)[C@H](CC(=O)O)NC(=O)[C@H](CC(C)C)NC(=O)[C@](C)(CC(C)C)NC(=O)[C@@H](NC(=O)[C@H](CO)NC(=O)[C@H](Cc1ccc(O)cc1)NC(=O)[C@H](CC(=O)O)NC(=O)[C@H](CO)NC(=O)[C@@H](NC(=O)[C@](C)(Cc1ccccc1F)NC(=O)[C@@H](NC(=O)CNC(=O)[C@H](CCC(=O)O)NC(=O)C(C)(C)NC(=O)[C@@H](N)Cc1ccc(O)cc1)[C@@H](C)O)[C@@H](C)O)[C@@H](C)CC)[C@@H](C)CC)C(=O)N[C@@H](CCC(=O)O)C(=O)NCC(=O)NCC(=O)N1CCC[C@H]1C(=O)N[C@@H](CO)C(=O)N[C@@H](CO)C(=O)NCC(=O)N[C@@H](C)C(=O)N1CCC[C@H]1C(=O)N1CCC[C@H]1C(=O)N1CCC[C@H]1C(=O)N[C@@H](CO)C(N)=O` [Example 147] (H-Y[Aib]EGT[αMePhe(2-F)]TSDYSI[αMeL]LDEK([AEEA-AEEA-γGlu-C20 diacid])AQ[Aib]EFI[Aad]YLIEGGPSSGAPPPS-NH2), the results for the inhibition constant Ki at human GLP-1R, at human Gcg receptor and on human GIP receptor were 4.47 nM, 64.9 nM and 0.0981 nM, respectively. The concentration for a half-maximal effect (EC50) in experiment [1] came to 0.0304 nM; in experiment [2], 0.0527 nM.

For `CC[C@H](C)[C@H](NC(=O)[C@H](CC(C)C)NC(=O)[C@H](Cc1ccc(O)cc1)NC(=O)[C@@H](NC(=O)[C@@H](NC(=O)[C@H](Cc1ccccc1)NC(=O)[C@H](CCC(=O)O)NC(=O)C(C)(C)NC(=O)[C@H](CCC(N)=O)NC(=O)[C@H](C)NC(=O)[C@H](CCCCNC(=O)COCCOCCNC(=O)COCCOCCNC(=O)CC[C@H](NC(=O)CCCCCCCCCCCCCCCCCCC(=O)O)C(=O)O)NC(=O)[C@H](CCC(=O)O)NC(=O)[C@H](CC(=O)O)NC(=O)[C@H](CC(C)C)NC(=O)[C@](C)(CC(C)C)NC(=O)[C@@H](NC(=O)[C@H](CO)NC(=O)[C@H](Cc1ccc(O)cc1)NC(=O)[C@H](CC(=O)O)NC(=O)[C@H](CO)NC(=O)[C@@H](NC(=O)[C@](C)(Cc1ccccc1F)NC(=O)[C@@H](NC(=O)CNC(=O)[C@H](CCC(=O)O)NC(=O)C(C)(C)NC(=O)[C@@H](N)Cc1ccc(O)cc1)[C@@H](C)O)[C@@H](C)O)[C@@H](C)CC)[C@@H](C)CC)C(C)C)C(=O)N[C@@H](CCC(=O)O)C(=O)NCC(=O)NCC(=O)N1CCC[C@H]1C(=O)N[C@@H](CO)C(=O)N[C@@H](CO)C(=O)NCC(=O)N[C@@H](C)C(=O)N1CCC[C@H]1C(=O)N1CCC[C@H]1C(=O)N1CCC[C@H]1C(=O)N[C@@H](CO)C(N)=O` [Example 149] (H-Y[Aib]EGT[αMePhe(2-F)]TSDYSI[αMeL]LDEK([AEEA-AEEA-γGlu-C20 diacid])AQ[Aib]EFIVYLIEGGPSSGAPPPS-NH2), the inhibitory constant (Ki) at human GLP-1R amounted to 26.1 nM; on human Gcg receptor it was 127 nM; at human GIP receptor it was 0.0708 nM. The EC50 in experiment [1] was 0.0711 nM; in experiment [2], 0.0916 nM.

For the compound `CC[C@H](C)[C@H](NC(=O)[C@H](CC(C)C)NC(=O)[C@H](Cc1ccc(O)cc1)NC(=O)[C@H](CO)NC(=O)[C@@H](NC(=O)[C@H](Cc1ccccc1)NC(=O)[C@H](CCC(=O)O)NC(=O)C(C)(C)NC(=O)[C@H](CCC(N)=O)NC(=O)[C@H](C)NC(=O)[C@H](CCCCNC(=O)COCCOCCNC(=O)COCCOCCNC(=O)CC[C@H](NC(=O)CCCCCCCCCCCCCCCCCCC(=O)O)C(=O)O)NC(=O)[C@H](CCC(=O)O)NC(=O)[C@H](CC(=O)O)NC(=O)[C@H](CC(C)C)NC(=O)[C@](C)(CC(C)C)NC(=O)[C@@H](NC(=O)[C@H](CO)NC(=O)[C@H](Cc1ccc(O)cc1)NC(=O)[C@H](CC(=O)O)NC(=O)[C@H](CO)NC(=O)[C@@H](NC(=O)[C@](C)(Cc1ccccc1F)NC(=O)[C@@H](NC(=O)CNC(=O)[C@H](CCC(=O)O)NC(=O)C(C)(C)NC(=O)[C@@H](N)Cc1ccc(O)cc1)[C@@H](C)O)[C@@H](C)O)[C@@H](C)CC)[C@@H](C)CC)C(=O)N[C@@H](CCC(=O)O)C(=O)NCC(=O)NCC(=O)N1CCC[C@H]1C(=O)N[C@@H](CO)C(=O)N[C@@H](CO)C(=O)NCC(=O)N[C@@H](C)C(=O)N1CCC[C@H]1C(=O)N1CCC[C@H]1C(=O)N1CCC[C@H]1C(=O)N[C@@H](CO)C(N)=O` [Example 150] (H-Y[Aib]EGT[αMePhe(2-F)]TSDYSI[αMeL]LDEK([AEEA-AEEA-γGlu-C20 diacid])AQ[Aib]EFISYLIEGGPSSGAPPPS-NH2), the Ki on human GLP-1R is 30.5 nM; at human Gcg receptor, 63.2 nM; on human GIP receptor, 0.0649 nM. Moreover, the EC50 in experiment [1] was 0.0511 nM; in experiment [2], 0.0575 nM.
